Source: ChEMBL document CHEMBL1146762, “Structure-activity relationships of trans-cinnamic acid derivatives on alpha-glucosidase inhibition” (Bioorg Med Chem Lett, 2004)

Assay: Inhibition of alpha-glucosidase activity
Set-up: species or system Saccharomyces cerevisiae

IC50 [µM]	SMILES
390	O=C(O)/C=C/c1ccc(Cl)cc1
580	COc1cccc(/C=C/C(=O)O)c1
> 5000	CCCCOc1ccc(/C=C/C(=O)O)cc1
> 5000	O=C(O)/C=C/c1ccc(OCc2ccccc2)cc1
440	O=C(O)/C=C/c1ccc(Oc2ccccc2)cc1
> 5000	O=C(O)/C=C/c1ccc(Br)cc1
1270	O=C(O)/C=C/c1cccc(O)c1
> 5000	CCCCCCOc1ccc(/C=C/C(=O)O)cc1
> 5000	O=C(O)/C=C/c1ccc([N+](=O)[O-])cc1
270	O=C(O)/C=C/c1ccc(F)cc1
50	CCOC(=O)/C=C/c1ccc(OC)cc1 [4-METHOXY ETHYL CINNAMATE]
40	COc1ccc(/C=C/C(=O)O)cc1 [4-METHOXYCINNAMIC ACID]
> 5000	O=C(O)/C=C/c1ccccc1 [CINNAMIC ACID]
200	O=C(O)/C=C/c1ccc(O)cc1 [COUMARIC ACID]
4340	COc1ccccc1/C=C/C(=O)O [COUMARINIC ACID METHYL ETHER]
5600	OC[C@H]1NC[C@H](O)[C@@H](O)[C@@H]1O [DUVOGLUSTAT]
> 5000	CCOC(=O)/C=C/c1ccccc1 [ETHYL CINNAMATE]
> 5000	O=C(O)/C=C/c1ccccc1O [O-COUMARIC ACID]
